In assay [1] the test system is Aspergillus nidulans. The assay is described as follows: Calcofluor rescue with filamentous fungus instead of S. cerevisiae. The assay is classed as cell-based. Particulars: very high calcofluor concentrations. The source says: (§1) Attempts are made to replace S. cerevisiae with several species of filamentous fungi, including Neurospora crassa, Aspergillus nidulans, Botrytis cinerea, Pseudocercosporella herpotrichoides, but all the species respond differently from S. cerevisiae. N. crassa and A. nidulans require very high concentrations of calcofluor to inhibit growth.

Assay [2] has as its system Neurospora crassa. The assay is described as above. The class given is cell-based. Particulars: very high calcofluor concentrations.
Description: as §1

For assay [3], the system named is Saccharomyces cerevisiae strain Y294. In words: Calcofluor rescue screen (disk or well diffusion). The class given is cell-based. Particulars: disk diffusion assay, 20 μg/disk, 30° C., two days. The protocol: A preferred method comprises adding a test sample to a Saccharomyces cerevisiae culture containing calcofluor white or a calcofluor white derivative. The test sample is introduced to a disk or a well on a culture plate in a standard diffusion assay using solidified media, or introduced into one of a series of equivalent tissue culture tubes or bottles in a standard turbidity assay using liquid media. The culture is incubated for such time under such conditions sufficient to observe yeast cell growth inhibition in a corresponding culture or culture plate area containing calcofluor white but no test sample. The extent of growth of the culture containing or surrounding the test sample is compared with the extent of growth in the culture or culture area containing no test sample. The presence of chitin synthesis inhibition is determined by observing whether growth in the presence of test sample exceeds growth in its absence. In a culture plate, this is a turbid zone of growth surrounding the test sample. In a culture tube series, this is enhanced turbidity.
autoclaving at 20 lbs for 15 min. Strain Y294 having genotype MATα leu2-3,112 ura3-52 his3Δ trp1 GAL+[CIR+] inoculated into this liquid media and grown overnight, an OD600 of ˜5 or greater, while being shaken at 30° C.
The plates are poured and test samples are placed on the plates. A ¼″ disk containing […] of nikkomycin Z is used as a positive control. The plates are incubated at 30° C. for two days and then examined for activity. Actives produce a turbid zone surrounding the test sample.
All compounds are tested by disk diffusion assay using the method of this invention at a rate of 20 μg/disk.

Assay [4] has as its system Botrytis cinerea. The assay is described as follows: Calcofluor rescue with filamentous fungus instead of S. cerevisiae. The assay is classed as cell-based. Particulars: does not grow in the media.
Description: as §1

Assay [5] concerns Pseudocercosporella herpotrichoides. Described as above. The assay is classed as cell-based. Particulars: does not grow in the media.
Description: as §1

Assay [6] concerns selected phytopathogenic fungi (Pseudocercosporella herpotrichoides, Rhizoctonia solani, Fusarium oxysporum). The assay is described as follows: In vitro fungicide discovery screen (growth in nutrient agar). Particulars: 10 μg/ml concentration range; especially against Rhizoctonia. The class given is cell-based. The protocol: Standard in vitro and in vivo fungicide discovery screens are employed as tertiary tests to prioritize actives from the calcofluor rescue screen and the secondary screens. […] These include fungi causing wheat eyespot (Pseudocercosporella herpotrichoides), rice sheath blight (Rhizoctonia solani) and damping off (Fusarium oxysporum); all synthesize chitin-containing cell walls. High potency fungicides are active against these species in the 10 ppm range (10 μg/ml), while nikkomycin Z can be detected at ˜70 μg/ml in the calcofluor rescue assay if 30 μl volumes are tested in welled plates.

Assay [7] addresses T1, Chs3 (Saccharomyces cerevisiae, UniProt P29465).
T1 construct: To assay Chs3 activity, membranes from cells lacking Chs1 and, preferably, Chs2 are prepared; endogenous in cells; host or cells: S. cerevisiae strains ECY36-3C, JW17-11/1A/FOA or SSY640-10A (crude membrane fraction)
In words: In vitro chitin synthase enzyme assay (incorporation of UDP-14C-N-acetylglucosamine). The assay is classed as biochemical. Here is the method: In Vitro Secondary Screens. These enzyme assays detect inhibition of individual chitin synthase isozymes Chs1, Chs2, and Chs3 by monitoring the incorporation of radioactive chitin precursor uridine diphospho-N-acetyl glucosamine into acid precipitable counts (i.e., chitin).
To assay Chs3 activity, membranes from cells lacking Chs1 and, preferably, Chs2 are prepared by a modification of the method of Orlean, P. cited above. Strain ECY36-3C, JW17-11/1A/FOA or SSY640-10A are inoculated into YEPD, and the culture is shaken at 30° C. Cells are harvested while still growing exponentially, e.g., at O.D.600 of ˜0.4 as measured in a Guilford Response™ spectrophotometer, washed once in 50 mM Tris-HCl, pH 7.5, containing 0.01 mM EDTA and 1 mM DTT (1,4-dithiothreitol), and resuspended in about 3 volumes of this buffer. Glass beads of about 200 to 300 micron diameter are added to just below the meniscus of the suspension, and cells are shaken by vortexing or in a Bead-Beater™ until lysis occurs, which is monitored microscopically. During this procedure, the cell suspension is kept below 10° C. by cooling in ice. The extract is collected, the glass beads are washed with the same buffer, and the wash is added to the extract. The volume is adjusted to about 20 original volumes with the same buffer.
The cell walls and debris are removed by a 10 minute centrifugation at about 3000×g. The samples are centriuged at 100,000×g for 40 minutes at 4° C. The membrane pellets are resuspended in about one original volume 50 mM Tris-HCl, pH 7.5 containing 0.01 mM EDTA which may contain 33% glycerol, and subjected to Dounce homogenization.
Ten μl of membranes are incubated with shaking in the presence of putative inhibitors in a standard 50 μl assay mixture containing 1 mM uridine diphospho-(^14C)-N-acetyl-glucosamine (400,000 cpm/μmole), 40 mM N-acetylglucosamine, 50 mM Tris-HCl, pH 7.5, and 5 mM MgCl2 at 25° C. The reaction is stopped after 90 minutes by addition of 10% trichloroacetic acid, and the amount of product quantified by filtration and scintillation counting.

T1 sequence (P34226 1-693): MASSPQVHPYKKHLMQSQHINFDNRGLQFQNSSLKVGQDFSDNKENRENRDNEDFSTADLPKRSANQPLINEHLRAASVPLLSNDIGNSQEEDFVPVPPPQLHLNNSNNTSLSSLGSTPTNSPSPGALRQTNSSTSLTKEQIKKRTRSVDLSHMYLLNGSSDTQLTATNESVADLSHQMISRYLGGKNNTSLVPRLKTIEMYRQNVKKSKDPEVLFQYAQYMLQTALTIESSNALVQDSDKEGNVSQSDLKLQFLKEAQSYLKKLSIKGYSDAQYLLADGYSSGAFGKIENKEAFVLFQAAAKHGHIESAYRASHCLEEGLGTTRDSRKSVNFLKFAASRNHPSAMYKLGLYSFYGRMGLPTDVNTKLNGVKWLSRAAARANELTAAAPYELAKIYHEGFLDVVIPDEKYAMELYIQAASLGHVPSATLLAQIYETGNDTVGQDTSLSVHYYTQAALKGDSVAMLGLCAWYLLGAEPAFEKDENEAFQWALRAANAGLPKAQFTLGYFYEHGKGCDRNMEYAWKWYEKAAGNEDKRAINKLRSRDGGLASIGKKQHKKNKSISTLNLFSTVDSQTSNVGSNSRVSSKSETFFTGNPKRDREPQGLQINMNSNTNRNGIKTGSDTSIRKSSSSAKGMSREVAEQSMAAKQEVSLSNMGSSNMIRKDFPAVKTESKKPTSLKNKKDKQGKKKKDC
T1 sequence (P29465 whole entry): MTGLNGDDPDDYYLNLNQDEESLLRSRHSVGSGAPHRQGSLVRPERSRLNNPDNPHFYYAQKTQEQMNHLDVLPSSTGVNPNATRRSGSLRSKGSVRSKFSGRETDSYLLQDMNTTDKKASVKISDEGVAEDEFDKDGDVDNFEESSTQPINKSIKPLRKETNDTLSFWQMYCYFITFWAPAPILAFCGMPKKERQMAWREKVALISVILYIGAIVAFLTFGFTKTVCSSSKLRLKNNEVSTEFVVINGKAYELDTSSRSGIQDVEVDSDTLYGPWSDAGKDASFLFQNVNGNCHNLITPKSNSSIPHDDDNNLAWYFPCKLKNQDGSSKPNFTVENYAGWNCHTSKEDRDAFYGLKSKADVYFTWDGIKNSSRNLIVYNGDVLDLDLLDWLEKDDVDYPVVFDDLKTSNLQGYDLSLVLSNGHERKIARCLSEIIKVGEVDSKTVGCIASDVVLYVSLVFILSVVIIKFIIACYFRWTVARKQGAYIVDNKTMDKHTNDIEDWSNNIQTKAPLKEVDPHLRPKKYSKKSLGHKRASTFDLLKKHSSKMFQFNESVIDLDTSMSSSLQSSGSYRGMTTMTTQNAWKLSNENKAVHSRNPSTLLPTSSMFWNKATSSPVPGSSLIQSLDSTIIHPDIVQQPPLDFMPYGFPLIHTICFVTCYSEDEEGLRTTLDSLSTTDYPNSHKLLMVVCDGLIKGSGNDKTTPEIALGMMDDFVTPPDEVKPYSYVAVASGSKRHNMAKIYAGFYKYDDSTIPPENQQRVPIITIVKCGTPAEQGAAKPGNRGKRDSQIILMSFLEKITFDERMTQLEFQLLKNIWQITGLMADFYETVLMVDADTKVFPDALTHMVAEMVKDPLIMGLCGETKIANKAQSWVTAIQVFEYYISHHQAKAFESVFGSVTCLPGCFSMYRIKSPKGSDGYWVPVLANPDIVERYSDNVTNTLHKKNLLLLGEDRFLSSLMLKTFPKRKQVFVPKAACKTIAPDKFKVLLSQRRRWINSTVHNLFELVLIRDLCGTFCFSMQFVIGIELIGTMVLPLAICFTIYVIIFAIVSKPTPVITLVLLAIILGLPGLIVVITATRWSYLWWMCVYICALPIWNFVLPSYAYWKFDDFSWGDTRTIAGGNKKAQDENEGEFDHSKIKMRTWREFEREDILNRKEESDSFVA

Consider `Nc1nc(=O)[nH]cc1F` [5-F-cytocine, 5-fluoro-cytosine], for which the “growth in calcofluor culture” value in assay [1] and in assay [2] was “extensive growth” in each case.
On to `NC(=O)OC[C@H](O)[C@@H](O)[C@H](N)C(=O)N[C@H](C(=O)O)[C@H]1O[C@@H](n2cc(C(=O)O)c(=O)[nH]c2=O)[C@H](O)[C@@H]1O` [polyoxin D], for which the “activity in the calcofluor rescue screen (turbid zone of growth)” value in assay [3] was “inactive”. Further, the “growth in calcofluor culture” value in assay [1] and in assay [2] was “extensive growth” throughout. Moreover, the rescue from calcofluor result in assay [4] and in assay [5] was “no rescue” each time. Moreover, the “activity against phytopathogenic fungi” value in assay [6] was “excellent activity”. The “% Chs3 Activity” value in assay [7] (10 μM inhibitor) is given as 100%; in assay [7] (30 μM inhibitor) it was “˜40%”; in assay [7] (90 μM inhibitor), “˜16%”.
Regarding `CCC(CC)Nc1c([N+](=O)[O-])cc(C)c(C)c1[N+](=O)[O-]` [prowl], the “growth in calcofluor culture” value in assay [1] and in assay [2] was “extensive growth” each time.
Regarding `COC(=O)c1ccccc1S(=O)(=O)NC(=O)Nc1nc(C)cc(C)n1` [sulfometuron methyl], the “growth in calcofluor culture” value in assay [1] and in assay [2] was “extensive growth” each time.

Source of the values: US6589762B1, “Calcafluor screen for chitin biosynthesis inhibitors” (priority 1993, dated 2003).
